Measurements reported in ChEMBL document CHEMBL1201862, “PubChem BioAssay data set” (2004).
Calls of active or inactive are those of the source.

What was measured:
[1] = HEp-2 cell cytotoxicity, dose response, cytotoxicity control for RSV inhibitor project, HTS (AID 2410); assay type: functional; details: human respiratory syncytial virus
Aminopeptidase N = molecular target: T1, Aminopeptidase N (Plasmodium falciparum FcB1/Columbia, UniProt O96935); assay: P. falciparum M1AAP inhibitors, biochemical, fluorogenic H-Leu-NHMec substrate, 1536-well (AID 1445); set-up: species or system Plasmodium falciparum 3D7, 3D7
T1 sequence (O96935 whole entry): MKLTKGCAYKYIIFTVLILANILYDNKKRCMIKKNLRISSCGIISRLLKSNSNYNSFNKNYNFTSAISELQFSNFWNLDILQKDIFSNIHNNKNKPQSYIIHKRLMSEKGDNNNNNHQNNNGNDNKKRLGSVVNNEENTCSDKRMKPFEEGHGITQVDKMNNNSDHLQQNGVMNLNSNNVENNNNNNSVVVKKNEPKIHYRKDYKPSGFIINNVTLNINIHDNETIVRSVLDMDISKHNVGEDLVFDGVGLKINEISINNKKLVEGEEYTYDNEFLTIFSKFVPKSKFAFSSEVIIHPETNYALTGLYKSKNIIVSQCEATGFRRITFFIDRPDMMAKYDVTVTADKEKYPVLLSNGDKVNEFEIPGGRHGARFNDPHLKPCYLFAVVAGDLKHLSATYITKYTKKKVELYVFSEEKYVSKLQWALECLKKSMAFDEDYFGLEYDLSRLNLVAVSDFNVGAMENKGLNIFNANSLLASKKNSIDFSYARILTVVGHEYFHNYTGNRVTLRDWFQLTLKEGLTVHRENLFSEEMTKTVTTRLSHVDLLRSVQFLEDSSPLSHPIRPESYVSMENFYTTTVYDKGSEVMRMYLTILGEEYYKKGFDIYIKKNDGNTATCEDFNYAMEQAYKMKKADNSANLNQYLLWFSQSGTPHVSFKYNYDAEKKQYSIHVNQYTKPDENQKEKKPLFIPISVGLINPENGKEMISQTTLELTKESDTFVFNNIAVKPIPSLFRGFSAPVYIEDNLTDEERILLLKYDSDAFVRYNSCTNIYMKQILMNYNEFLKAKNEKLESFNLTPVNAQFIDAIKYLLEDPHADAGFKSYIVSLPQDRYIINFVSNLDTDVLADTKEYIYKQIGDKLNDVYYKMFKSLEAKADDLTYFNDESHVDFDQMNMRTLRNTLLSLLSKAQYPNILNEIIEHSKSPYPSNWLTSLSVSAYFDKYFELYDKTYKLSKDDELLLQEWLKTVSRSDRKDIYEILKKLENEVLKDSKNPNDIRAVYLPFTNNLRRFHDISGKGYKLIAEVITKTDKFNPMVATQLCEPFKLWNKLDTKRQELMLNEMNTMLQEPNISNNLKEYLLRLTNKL

[2] = tested on: Streptococcus sp. 'group A'; assay: growth inhibition of control SK(-) GAS strain, dose response, counter-screen for streptokinase expression inhibitor project, luminescence, kanamycin, BacTiterGlo, confirmation (AID 1900); assay type: functional, organism-based
Streptokinase A = molecular target: T2, Streptokinase A (Streptococcus pyogenes serotype M1, UniProt P10520); assay: S. pyogenes streptokinase expression inhibitors, potency, dose response, plasminogen activation absorbance, OD405 (AID 1914); assay type: functional, Streptococcus pyogenes M1 GAS;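 note: secreted streptokinase activity via plasminogen activation per viability signal from cell pellet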
T2 sequence (P10520 whole entry): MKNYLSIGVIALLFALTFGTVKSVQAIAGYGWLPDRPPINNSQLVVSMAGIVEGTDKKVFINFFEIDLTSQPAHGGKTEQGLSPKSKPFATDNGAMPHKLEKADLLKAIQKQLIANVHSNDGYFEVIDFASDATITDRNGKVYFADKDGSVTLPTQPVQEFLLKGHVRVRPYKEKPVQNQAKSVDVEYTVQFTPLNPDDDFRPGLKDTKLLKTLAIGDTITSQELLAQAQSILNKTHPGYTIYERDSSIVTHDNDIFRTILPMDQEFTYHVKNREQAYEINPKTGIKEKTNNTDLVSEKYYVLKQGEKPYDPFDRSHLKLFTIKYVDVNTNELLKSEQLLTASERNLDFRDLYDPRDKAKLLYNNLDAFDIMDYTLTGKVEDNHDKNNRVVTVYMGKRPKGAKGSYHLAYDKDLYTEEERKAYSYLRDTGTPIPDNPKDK

[3] = molecular target: T3, Induced myeloid leukemia cell differentiation protein Mcl-1 (Homo sapiens, UniProt Q07820); assay: MCL1-BIM BH3 interaction inhibitors, dose response, biochemical, fluorescence polarization, BIM-BH3 peptide, 1536-well (AID 2217)
T3 sequence (Q07820 whole entry): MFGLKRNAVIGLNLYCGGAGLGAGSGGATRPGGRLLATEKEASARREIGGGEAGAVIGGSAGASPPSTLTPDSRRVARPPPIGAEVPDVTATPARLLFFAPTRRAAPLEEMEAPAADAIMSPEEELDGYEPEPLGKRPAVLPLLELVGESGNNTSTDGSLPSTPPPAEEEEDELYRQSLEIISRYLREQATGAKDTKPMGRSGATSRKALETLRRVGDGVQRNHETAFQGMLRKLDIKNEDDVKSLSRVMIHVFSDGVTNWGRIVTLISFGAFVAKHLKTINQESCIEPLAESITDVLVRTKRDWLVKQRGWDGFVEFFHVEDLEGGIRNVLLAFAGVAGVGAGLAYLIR

Estrogen receptor beta = Estrogen receptor beta (Homo sapiens, UniProt Q92731); assay: ERβ–SRC-3 coactivator interaction inhibitors, confirmation, orthogonal assay, biochemical, ELISA, streptavidin-HRP readout (AID 1060)
Chain of Estrogen receptor beta (Q92731 whole entry): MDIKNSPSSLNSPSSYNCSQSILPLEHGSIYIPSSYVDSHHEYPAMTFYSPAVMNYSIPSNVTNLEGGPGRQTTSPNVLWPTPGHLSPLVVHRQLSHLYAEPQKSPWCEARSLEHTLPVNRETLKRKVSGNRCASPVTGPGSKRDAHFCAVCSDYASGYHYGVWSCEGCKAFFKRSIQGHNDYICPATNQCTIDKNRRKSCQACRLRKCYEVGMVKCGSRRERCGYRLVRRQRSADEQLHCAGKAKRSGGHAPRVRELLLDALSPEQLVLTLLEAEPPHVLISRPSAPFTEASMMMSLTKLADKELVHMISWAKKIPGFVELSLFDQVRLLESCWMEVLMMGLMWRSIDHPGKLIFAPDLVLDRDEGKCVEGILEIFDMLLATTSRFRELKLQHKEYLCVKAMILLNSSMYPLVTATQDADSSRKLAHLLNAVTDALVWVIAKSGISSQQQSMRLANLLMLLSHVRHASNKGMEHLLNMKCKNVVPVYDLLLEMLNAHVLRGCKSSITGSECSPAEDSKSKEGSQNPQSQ

Bcl-2-like protein 1 = Bcl-2-like protein 1 (Homo sapiens, UniProt Q07817); assay: BCL-XL inhibitors, dose response, selectivity assay for MCL1 inhibitor project, biochemical, fluorescence polarization, 1536-well (AID 2218)
Chain of Bcl-2-like protein 1 (Q07817 whole entry): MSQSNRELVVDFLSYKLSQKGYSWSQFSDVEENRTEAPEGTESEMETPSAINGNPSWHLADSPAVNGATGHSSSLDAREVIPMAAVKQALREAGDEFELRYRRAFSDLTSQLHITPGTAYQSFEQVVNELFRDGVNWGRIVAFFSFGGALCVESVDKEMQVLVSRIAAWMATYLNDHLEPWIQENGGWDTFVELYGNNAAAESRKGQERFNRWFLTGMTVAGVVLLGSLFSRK

[4] = molecular target: T3, Induced myeloid leukemia cell differentiation protein Mcl-1; assay type: functional
Streptococcus = assay: Group A Streptococcus viability loss, dose response, counter-screen for streptokinase expression inhibitor project, luminescence, BacTiterGlo (AID 1915); assay type: functional, organism-based;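 note: potency for reduction of bacterial viability or growth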
[5] = THP-1 cell cytotoxicity, dose response, cytotoxicity control for non-replicating M. tuberculosis project (AID 489025); assay type: functional
[6] = Vero E6 cell cytotoxicity, dose response, cytotoxicity control for non-replicating M. tuberculosis project, secondary assay (AID 492998); assay type: functional, VeroE6; details: Vero C1008
Cysteine protease ATG4B = Cysteine protease ATG4B (Homo sapiens, UniProt Q9Y4P1); assay type: functional;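 note: Fluorescence-based dose-response confirmation assay measuring inhibition of ATG4B activity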
Chain of Cysteine protease ATG4B (Q9Y4P1 whole entry): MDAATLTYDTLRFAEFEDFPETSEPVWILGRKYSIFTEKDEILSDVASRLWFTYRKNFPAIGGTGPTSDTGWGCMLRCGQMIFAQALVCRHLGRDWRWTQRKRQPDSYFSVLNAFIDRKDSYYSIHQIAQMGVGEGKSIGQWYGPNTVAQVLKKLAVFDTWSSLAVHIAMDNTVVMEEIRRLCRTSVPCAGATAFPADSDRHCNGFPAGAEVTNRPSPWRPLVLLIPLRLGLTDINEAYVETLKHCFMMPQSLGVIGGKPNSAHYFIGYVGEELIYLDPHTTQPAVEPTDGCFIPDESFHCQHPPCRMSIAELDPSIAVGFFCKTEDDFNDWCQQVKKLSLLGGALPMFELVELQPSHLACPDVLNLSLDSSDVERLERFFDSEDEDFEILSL

Phospholipase A2 = Phospholipase A2 (Homo sapiens, UniProt P04054); assay type: functional;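 note: confirmatory dose-response counterscreen on phospholipase A2, testing hits that came from an ultra-high-throughput screen for ATG4B inhibitors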
Chain of Phospholipase A2 (P04054 whole entry): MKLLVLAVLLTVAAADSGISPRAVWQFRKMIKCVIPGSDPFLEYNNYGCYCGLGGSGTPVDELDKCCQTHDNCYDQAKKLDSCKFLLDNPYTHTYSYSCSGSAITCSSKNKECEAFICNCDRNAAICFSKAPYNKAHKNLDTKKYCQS

## C/C(=N/NC(=O)c1cc2ccccc2cc1O)C1C(=O)c2ccccc2C1=O
[1]
  CC50: > 50 µM (active)
Aminopeptidase N
  IC50: 12 µM (active)
[2]
  EC50: 1.03 µM (active)
Streptokinase A
  EC50: > 150 µM (not active)
[3]
  IC50: > 109 µM (not active)
Estrogen receptor beta
  IC50: 0.0588 µM (not active)
Bcl-2-like protein 1
  IC50: > 109 µM (not active)
[4]
  IC50: 2.11 µM (active)
Streptococcus
  EC50: 10.1 µM (active)
[5]
  CC50: 17.7 µM (active)
[6]
  CC50: 16.7 µM (active)
Cysteine protease ATG4B
  IC50: 5.43 µM (active)
Phospholipase A2
  IC50: 4.87 µM (active)
